Key:
NSCs (HB1.F3-CD) = test: CRAd-S-pk7 replication in NSCs treated with XRT-TMZ (E1A qPCR, titer); type: cell-based, human; details: day 4; TMZ 100 µM
Description: FIGS. 41A, 41B and 41C show evaluation of CRAd-Survivin-pk7 (CRAd-S-pk7) replication in neural stem cells (NSCs) treated with XRT-TMZ according to one embodiment. Viral replication of CRAd-S-pk7 was measured by quantitative real-time polymerase chain reaction and presented as a number of viral E1A copies per nanogram of DNA from infected NSCs. (FIG. 41A, 41B): Viral replication was evaluated daily up to 96 hours after treatment with 0, 10, 50, or 100 µM TMZ (FIG. 41A) and 0, 2, or 4 Gy of XRT (FIG. 41B). (FIG. 41C): CRAd-S-pk7 viral titer levels 96 hours after XRT-TMZ treatment of infected NSCs. […] Abbreviations: DMSO, dimethyl sulfoxide; IU, infectious units; TMZ, temozolomide; XRT, radiation therapy.
To detect the level of viral replication, NSCs were infected with 50 IU of CRAd-S-pk7 and treated with XRT-TMZ. […] Adenoviral E1A gene expression was quantified via qRTPCR using iQ SYBR Green supermix (Bio-Rad, Hercules, Calif., http://www.bio-rad.com), using primers and protocol previously described (Sonabend et al. 2009). The quantification of infectious viral progeny of NSCs was conducted using the Adeno-X rapid titer kit protocol (Clontech, Mountain View, Calif., http://www.clontech.com) as described elsewhere (Thaci et al. 2012). The titration unit (IU/ml) values quantified through this protocol are similar to plaque-forming units. […]

[1] = test system: U87MG intracranial glioma xenografts; test: U87MG intracranial xenograft, TMZ and CRAd-S-pk7 combination survival; type: in vivo, mice
Description: FIGS. 11A, 11B and 11C show in vivo anti-tumor activity of CRAd-S-pk7 in combination with TMZ according to one embodiment. (FIG. 11A) Five consecutive injections of TMZ at 70 mg/kg/day (▾) achieve 100% survival for 80 days post U87MG implantation, whereas 5 TMZ injections at 10 mg/kg/day (∘) had significant increase in survival compared to mock treatment ( )(p<0.05).
Because temozolomide (TMZ) is the standard of care for patients with GBM, the efficacy of TMZ and CRAd-S-pk7 combination was evaluated in vivo in mice with U87MG intracranial (i.c.) glioma xenografts. To employ a dose that resembles the partial therapeutic effect of TMZ seen in the clinical scenario, different doses of TMZ were tested. Based on those studies, a dose of 10 mg/kg/day×5 days of intraperitoneal (i.p.) TMZ was chosen to study the efficacy of a TMZ and CRAd-S-pk7 combination treatment, since this dose led to an increase in survival but remained non-curative (FIG. 11A) (log-rank test, p<0.05). Additionally, different doses of i.c. CRAd-S-pk7 injections were tested to investigate which dose provides an increase in survival that could be further enhanced by the addition of co-adjuvant TMZ. A dose of 3×10^9 vp/mouse×2 injections of CRAd-S-pk7 was chosen for testing the therapeutic effects of TMZ+CRAd-S-pk7 combination, since it led to a partial efficacy that could be further enhanced (FIG. 11B) (log-rank test p<0.05).
Based on the above findings, the combination of TMZ and CRAd-S-pk7 was tested for efficacy in terms of survival (FIG. 11C). The combination of TMZ (10 mg/kg/day×5) plus two i.c. injections of CRAd-S-pk7 3×10^9 vp/mouse led to a 90% of long term survivors (>90 days) (LTS). […] Consistent with the finding of an additive cytotoxic effect of TMZ and CRAd-S-pk7 in vitro experiments, this treatment combination led to an improved survival in mice bearing intracranial human glioma xenografts.

GBM43 = test: TMZ IC50 with simultaneous XRT; type: cell-based; details: Homo sapiens; treated with XRT (2 Gy) simultaneously
Description: For all studies, the cells and mice received XRT in accordance with the University of Chicago's radiation safety guidelines and protocols. All cells received a single dose of 2 Gy XRT. For animal studies, 10 Gy fractioned dose radiotherapy (2 Gy for 5 consecutive days) was used. The animals were irradiated with a lead cover shielding their entire body, with only their heads exposed. […] For in vivo studies, the mice received 2.5, 5, 10, or 30 mg/kg TMZ via intraperitoneal injection.

[2] = human, in vivo; cited from earlier work

## Cn1nnc2c(C(N)=O)ncn2c1=O [TMZ, temozolomide]
NSCs (HB1.F3-CD)
  decrease in E1A copies per nanogram of DNA: 3 fold
[1]; TMZ 10 mg/kg/day×5 alone or CRAd-S-pk7 3×10^9 vp/mouse×2 alone
  median survival: 51 days
[1]; TMZ 10 mg/kg/day×5 i.p., CRAd-S-pk7 3×10^9 vp/mouse×2 i.c., alone or combined
  long term survivors (>90 days) (LTS): 7%
[1]; TMZ 70 mg/kg/day, five consecutive injections
  survival for 80 days post U87MG implantation: 100%
GBM43
  IC50: 37 µM
[2]
  intratumoral concentration (likely range): 5 to 50 µM
  peak concentration in patient's blood: 50 µmol/L
  peak concentration in the cerebral spinal fluid: 5 µmol/L
